The values below come from patent US4954518A, “4H-1-benzopyran-4-one derivative or its salt, process for producing the same and pharmaceutical composition comprising the same as active ingredient” (Toyama Chemical Company, Ltd., priority 1987, dated 1990).

Read-outs that look alike come from different tables or passages of the source.

A short description of data set [1]: Ulcerogenic effect in rats. Particulars: rat, in vivo. Set-up: species or system male rats of Wister strain. How it is done: To male rats of Wister strain (body weight: 180-230 g, 7 to 8 rats per group) which had been fasted for 24 hours with free access to water was orally administered a test compound suspended in 0.5% (w/v) aqueous carboxymethylcellulose solution in a proportion of 1 ml/100 g of body weight. The rats were allowed to stand under abstinence from food and water for 24 hours, and thereafter, sacrificed by dislocation of cervical vertebrae, after which the stomach was removed and fixed in 1% (v/v) formaline solution for 30 minutes. This stomach was split along the greater curvature and the length (mm) of the erosion and ulcer formed on the gastric mucosa was measured by a stereomicroscope, and the total sum of the lengths (lmm) was determined, from which ulcerogenic index was assessed based on the following arbitrary scale:
Subsequently, UD50 (mg/kg) which is the dose of the test compound which induces ulcerogenic index 5 was determined on each test compound.
*Rats were allowed to stand for 5 hours under abstinence from food and […]

For the next data set, the system named is Adjuvant Arthritis. In words: Adjuvant-induced arthritis in rats (inhibitory activity). The data set is classed as in vivo, male rats of Westar-Lewis strain. To be noted: for Inhibitory effect (adjuvant arthritis, Table 3): seven continuous days; for inhibition in vivo at 3 mg/kg / inhibition in vivo at 10 mg/kg: Rattus norvegicus, read-out: Inhibitory effect (adjuvant arthritis, Table 4). The procedure:
(2) Adjuvant-induced arthritis
This inhibitory activity was tested according to the method of E. M. Glenn [American Journal of Veterinary Research, vol. 27, p. 339 (1966)].
To male rats of Westar-Lewis strain (body weight: 190-230 g, 5 rats per group) was intradermally injected 0.1 ml of a suspension of heat-killed Mycobacterium tuberculosis in liquid paraffin at a concentration of 6 mg/ml as the adjuvant into the root of tail. Eighteen days after the adjuvant injection, the rats were classified based on the volume of both hind paws, and then a suspension of the test compound in 0.5% (w/v) aqueous carboxymethylcellulose solution was orally administered to the classified rats in a proportion of 1 ml/100 g of body weight once a day for seven continuous days (see Table 3) or four continuous days (see Table 4). On the day following the last administration, the volume of both hind paws was measured, and in the same manner as in (1) above, the inhibitory effect was determined. Incidentally, the result is shown in Tables 3 and 4 in terms of the inhibitory effect indicated below based on inhibition (x%).

Data set [2] is described as follows: Oral acute toxicity in mice. It counts as in vivo, ICR strain male mice. To be noted: mouse, in vivo; oral, mice. How it is done: (§1) ICR strain male mice (body weight: 20-25 g, […], 3 mice per group) were tested for oral acute toxicity. A test compound suspended in 0.5% (w/v) aqueous carboxymethylcellulose solution was orally administered to the mice in a proportion of 0.2 ml/10 g of body weight. After the administration, general symptom was observed over one week.

In data set [3] the test system is Carrageenin-Induced Paw Edema. In words: Carrageenin-induced paw edema in rats (inhibitory activity). It counts as in vivo, male rats of Donryu strain. To be noted: Rattus norvegicus, read-out: Inhibitory effect (carrageenin-induced paw edema). How it is done:
(1) Carrageenin-induced paw edema
This inhibitory activity was tested according to the method of C. A. Winter et al. [Proceedings of the Society for Experimental Biology and Medicine, vol.
After one hour, 0.1 ml of a 1% carrageenin was injected into the subplantar region of the left hind paw. Three hours after carrageenin injection, the paw volume was measured plethysmographically and the percent swelling was determined from the volume before injection and the inhibitory percentage was calculated according to the following equation: [formula]
In general terms: The carrageenan paw model is a standard test of acute inflammation.

In a further data set the test system is mice. In words: Oral acute toxicity in mice. The data set is classed as in vivo, ICR strain male mice. To be noted: for behavioural changes: mouse, in vivo, po, 500 mg/kg; for death cases: oral, dose of 500 mg/kg, observed over one week. How it is done: as §1
[4] abbreviates: 10 mg/kg oral once a day, four continuous days.
[5] abbreviates: 10 mg/kg oral, 1 h before carrageenin, paw volume 3 h after.
Setting [6] is: 3 mg/kg oral once a day, four continuous days.

What is called LD50 is the dose expected to kill half of the subjects tested. Read a high LD50 as lower toxicity. Turning to `COc1ccc2c(c1)c(CC(=O)O)c(C)n2C(=O)c1ccc(Cl)cc1` [IM, indomethacin, reference compound], the TD50 at 24 h in data set [1] (oral, 24 hours under abstinence from food and water, read-out: UD50 (dose which induces ulcerogenic index 5)) turned out to be 4.3 mg/kg. The “Inhibitory effect (adjuvant arthritis, Table 3)” value (shortened to “Inhibitory effect”) in the data set on Adjuvant Arthritis (1 mg/kg oral once a day) is listed as “+++ (30 ≤ × < 40)”. Also, the inhibition in vivo at 3 mg/kg with Adjuvant Arthritis (po) is 30 to 40%. Besides, in data set [2], the LD50 at 168 h worked out at 25 mg/kg. Moreover, the inhibition in vivo at 10 mg/kg in data set [3] (po, 3 h) was greater than 40%.

Turning to `CNc1coc2cc(NS(C)(=O)=O)c(Oc3ccccc3)cc2c1=O` [Compound 101], the figures for the inhibition in vivo at 10 mg/kg (with Adjuvant Arthritis (setting [4]); in data set [3] (setting [5])) were 20 to 30% and 30 to 40%, respectively.

`CN(C=O)c1coc2cc(NS(C)(=O)=O)c(Oc3ccccc3)cc2c1=O` [Compound 100]: the figures for the inhibition in vivo at 10 mg/kg (in the data set on Adjuvant Arthritis (setting [4]); in data set [3] (setting [5])) were 20 to 30% and greater than 40%, respectively.

With `CSc1coc2cc(NS(C)(=O)=O)c(Oc3ccccc3)cc2c1=O` [Compound 4, 7-methylsulfonylamino-3-methylthio-6-phenoxy-4H-1-benzopyran-4-one], the inhibition in vivo at 3 mg/kg in the data set on Adjuvant Arthritis (setting [6]) is 20 to 30%. The inhibition in vivo at 10 mg/kg in data set [3] (setting [5]) was in the range of 20 to 30%.

Regarding `CC(=O)N(c1cc2occc(=O)c2cc1Oc1ccccc1)S(C)(=O)=O` [Compound 96], the “Inhibitory effect” value in the data set on Adjuvant Arthritis (10 mg/kg oral once a day) is reported as “++++ (× ≥ 40)”. In addition, the inhibition in vivo at 10 mg/kg in data set [3] (setting [5]) was in the range of 30 to 40%.

For the molecule `CS(=O)(=O)Nc1cc2occc(=O)c2cc1Oc1ccccc1` [Compound 1, 7-methylsulfonylamino-6-phenoxy4H-1-benzopyran-4-one], in data set [1] (po), the TD50 at 5 h was greater than 300 mg/kg. Besides, the “Inhibitory effect” value in the data set on Adjuvant Arthritis (10 mg/kg oral once a day) is reported as “+++ (30 ≤ × < 40)”. In addition, in the data set on mice, the behavioural changes entry is reported as “no behavioural changes were observed” and the death cases entry is on record as “no death case was found”. Also, in data set [3] (setting [5]), the inhibition in vivo at 10 mg/kg was in the range of 30 to 40%.

Consider `O=CNc1coc2cc(NS(=O)(=O)CCl)c(Oc3ccccc3)cc2c1=O` [Compound 40], for which the inhibition in vivo at 3 mg/kg in the data set with Adjuvant Arthritis (setting [6]) lay within 20 to 30%. The inhibition in vivo at 10 mg/kg in data set [3] (setting [5]) is greater than 40%.

As for `CS(=O)(=O)Nc1cc2occc(=O)c2cc1Oc1ccc(F)cc1F` [Compound 94, 6-(2,4-difluorophenoxy)-7-methylsulfonylamino-4H-1-benzopyran-4-one], in data set [1] (po), the TD50 at 5 h was greater than 300 mg/kg. Further, in the data set with Adjuvant Arthritis (10 mg/kg oral once a day), the “Inhibitory effect” value was “++++ (× ≥ 40)”. In addition, in the data set with mice, the behavioural changes entry was “no behavioural changes were observed” and the death cases result was “no death case was found”. Further, in data set [3] (setting [5]), the inhibition in vivo at 10 mg/kg was 30 to 40%.

Turning to `Cc1oc2cc(NS(C)(=O)=O)c(Oc3ccccc3)cc2c(=O)c1C(N)=O` [Compound 61], the inhibition in vivo at 10 mg/kg lay in the range of 30 to 40% with Adjuvant Arthritis (setting [4]) and 15 to 20% in data set [3] (setting [5]).

`CS(=O)(=O)Nc1cc2occ(NC=O)c(=O)c2cc1Oc1ccccc1` [Compound 99]: the TD50 at 24 h in data set [1] (po) was greater than 500 mg/kg. Also, the inhibition in vivo at 3 mg/kg with Adjuvant Arthritis (setting [6]) is 20 to 30%. Moreover, in the data set on mice, the behavioural changes entry is reported as “no behavioural changes were observed” and the death cases result is reported as “no death case was found”. The inhibition in vivo at 10 mg/kg in data set [3] (setting [5]) is greater than 40%.

With `CS(=O)(=O)Nc1cc2occ(NC=O)c(=O)c2cc1Sc1ccccc1` [Compound 88], the inhibition in vivo at 10 mg/kg with Adjuvant Arthritis (setting [4]) is 20 to 30%; in data set [3] (setting [5]), 30 to 40%.

With `Cc1cc(=O)c2cc(Oc3ccccc3)c(NS(C)(=O)=O)cc2o1` [Compound 9], in the data set on Adjuvant Arthritis (10 mg/kg oral once a day), the “Inhibitory effect” value is “++++ (× ≥ 40)”. Moreover, the inhibition in vivo at 10 mg/kg in data set [3] (setting [5]) lay within 20 to 30%.

In data set [1] (po), `CS(=O)(=O)Nc1cc2occ(NC=O)c(=O)c2cc1Oc1ccc(F)cc1F` [Compound 39] displayed a TD50 at 24 h greater than 500 mg/kg. Also, in the data set with Adjuvant Arthritis (setting [6]), the inhibition in vivo at 3 mg/kg lay within 20 to 30%. Moreover, in the data set with mice, the behavioural changes result is given as “no behavioural changes were observed” and the death cases entry is given as “no death case was found”. For the same molecule, the inhibition in vivo at 10 mg/kg in data set [3] (setting [5]) is greater than 40%.

Turning to `CS(=O)(=O)Nc1cc2occ(C(N)=O)c(=O)c2cc1Oc1ccccc1` [Compound 122], the inhibition in vivo at 3 mg/kg in the data set on Adjuvant Arthritis (setting [6]) is 20 to 30%. Moreover, in data set [3] (setting [5]), the inhibition in vivo at 10 mg/kg is 20 to 30%.

For the molecule `CS(=O)(=O)Nc1cc2occc(=O)c2cc1Nc1ccccc1` [Compound 12], in the data set on Adjuvant Arthritis (setting [6]), the inhibition in vivo at 3 mg/kg lay in the range of 30 to 40%. The inhibition in vivo at 10 mg/kg in data set [3] (setting [5]) was in the range of 30 to 40%.

For `CS(=O)(=O)Nc1cc2occ(NC=O)c(=O)c2cc1Oc1ccccc1F` [Compound 34], the TD50 at 24 h in data set [1] (po) is greater than 500 mg/kg. Further, in the data set with Adjuvant Arthritis (setting [6]), the inhibition in vivo at 3 mg/kg fell in the range of 30 to 40%. For the same molecule, in the data set on mice, the behavioural changes entry is “no behavioural changes were observed” and the death cases entry is “no death case was found”. Also, in data set [3] (setting [5]), the inhibition in vivo at 10 mg/kg is greater than 40%.

With `Cc1ccccc1Oc1cc2c(=O)c(NC=O)coc2cc1NS(C)(=O)=O` [Compound 46], the TD50 at 24 h in data set [1] (po) is greater than 500 mg/kg. In addition, in the data set on Adjuvant Arthritis (setting [6]), the inhibition in vivo at 3 mg/kg was in the range of 20 to 30%. In addition, in the data set on mice, the behavioural changes entry is given as “no behavioural changes were observed” and the death cases entry was “no death case was found”. Also, the inhibition in vivo at 10 mg/kg in data set [3] (setting [5]) is greater than 40%.
